# Measured values: US20220002268A1, “NOVEL HETEROARYL-TRIAZOLE AND HETEROARYL-TETRAZOLE COMPOUNDS AS PESTICIDES” (Bayer Aktiengesellschaft, priority 2019, published 2022)
# Tests used:
# [1] = log P by HPLC on reversed phase, neutral range; format: physicochemical; conditions: reversed phase HPLC column, LC-UV, 0.001 molar ammonium acetate solution in water and acetonitrile
# Description: Measurement of log P values was performed according to EEC directive 79/831 Annex V.A8 by HPLC (High Performance Liquid Chromatography) on reversed phase columns with the following methods. Instrument(s): Agilent 1100 LC system, Agilent MSD system, HTS PAL; Waters IClass Acquity UPLC, SQD2 (MS), PDA (UV). […] Calibration was done with straight-chain alkan-2-ones (with 3 to 16 carbon atoms) with known log P values (measurement of log P values using retention times with linear interpolation between successive alkanones). Lambda-max-values were determined using UV-spectra from 200 nm to 400 nm and the peak values of the chromatographic signals.
# [2] = tested on: Ctenocephalides felis; assay: Ctenocephalides felis in-vitro contact test, adult cat flea; format: in vivo; conditions: 5 μg/cm^2, after 48 hours
# Description: (§1) 9 mg compound is solved in 1 ml acetone and diluted with acetone to the desired concentration. 250 μl of the test solution is filled in 25 ml glass test tubes and homogeneously distributed on the inner walls by rotation and tilting on a shaking device (2 h at 30 rpm). With a compound concentration of 900 ppm, an inner surface of 44.7 cm^2 and a homogeneous distribution, a dose of 5 μg/cm^2 is achieved.
# (§2) After the solvent has evaporated, each test tube is filled with 5-10 adult cat fleas (Ctenocephalides felis), closed with a perforated lid and incubated in a lying position at room temperature and relative humidity. After 48 hours efficacy is determined. The fleas are patted on the ground of the tubes and are incubated on a heating plate at 45-50° C. for at most 5 minutes. Immotile or uncoordinated moving fleas, which are not able to escape the heat by climbing upwards, are marked as dead or moribund.
# An efficacy of 100% means all fleas are dead or moribund; 0% means no fleas are dead or moribund.
# [3] = tested on: Spodoptera frugiperda; assay: Spodoptera frugiperda spray test; format: in vivo; conditions: 168 h, after 7 days
# Description: Suodontera frugiuerda—Spray Test Solvent: 78.0 parts by weight acetone • 1.5 parts by weight dimethylformamide Emulsifier: alkylarylpolyglycol ether
# (§3) To produce a suitable preparation of active compound, 1 part by weight of active compound is mixed with the stated amount of solvents and is diluted with water, containing an emulsifier concentration of 1000 ppm, to the desired concentration. Further test concentrations are prepared by dilution with emulsifier containing water.
# Maize (Zea mays) leaf sections are sprayed with a preparation of the active ingredient of the desired concentration. Once dry, the leaf sections are infested with fall armyworm larvae (Spodoptera frugiperda).
# After 7 days mortality in % is determined. 100% means all caterpillars have been killed and 0% means none of the caterpillars have been killed.
# [4] = tested on: Boophilus microplus; assay: Boophilus microplus injection test; format: in vivo; conditions: Rhipicephalus microplus, 168 h; 20 gg/animal, injection into abdomen, after 7 days; read-out: efficacy (infertile eggs)
# Description: Boophilus microplus—Injection Test Solvent: dimethyl sulfoxide To produce a suitable preparation of active compound, 10 mg of active compound are dissolved in 0.5 ml solvent, and the concentrate is diluted with solvent to the desired concentration. Five adult engorged female ticks (Boophilus microplus) are injected with 1 μl compound solution into the abdomen. The ticks are transferred into replica plates and incubated in a climate chamber. After 7 days egg deposition of fertile eggs is monitored. Eggs where fertility is not visible are stored in a climate chamber till hatching after about 42 days. An efficacy of 100% means all eggs are infertile; 0% means all eggs are fertile.
# [5] = tested on: Diabrotica balteata; assay: Diabrotica balteata spray test; format: in vivo; conditions: 168 h, 160 gg/well, after 7 days, read-out: efficacy (seedlings grown)
# Description: Diabrotica balteata—Spray Test Solvent: 78.0 parts by weight of acetone • • 1.5 parts by weight of dimethylformamide Emulsifier: alkylarylpolyglycol ether
# as §3, with “solvent,” for “solvents”, “and the concentrate” for “and”
# Soaked wheat seeds (Triticum aestivum) are placed in a multiple well plate filled with agar and some water and are incubated for 1 day to germinate (5 seeds per well). The germinated wheat seeds are sprayed with a test solution containing the desired concentration of the active ingredient. Afterwards each unit is infected with 10-20 larvae of the banded cucumber beetle (Diabrotica balteata).
# After 7 days efficacy in % is determined. 100% means all the seedlings have grown up like in the untreated, uninfected control; 0% means none of the seedlings have grown.
# [6] = tested on: Myzus persicae; assay: Myzus persicae oral test; format: in vivo; conditions: 120 h, after 5 days
# Description: Myzus persicae—Oral Test Solvent: 100 parts by weight acetone
# To produce a suitable preparation of active compound, 1 part by weight of active compound is mixed with the stated amount of solvent, and the concentrate is diluted with water to the desired concentration.
# 50 μl compound solution is filled in microtiter plates and 150 μl IPL41 insect medium (33%+15% sugar) is added to obtain a total volume of 200 μl per well. Afterwards the plates are sealed with parafilm through which a mixed population of the green peach aphid (Myzus persicae) can suck on the compound preparation.
# After 5 days mortality in % is determined. 100% means all aphids have been killed and 0% means none of the aphids have been killed.
# [7] = tested on: Phaedon cochleariae; assay: Phaedon cochleariae spray test; format: in vivo; conditions: 168 h, after 7 days
# Description: Phaedon cochleariae—Spray Test Solvent: 78.0 parts by weight of acetone • • 1.5 parts by weight of dimethylformamide Emulsifier: alkylarylpolyglycol ether
# as §3
# Chinese cabbage (Brassica pekinensis) leaf disks are sprayed with a preparation of the active ingredient of the desired concentration. Once dry, the leaf disks are infested with mustard beetle larvae (Phaedon cochleariae).
# After 7 days mortality in % is determined. 100% means all beetle larvae have been killed and 0% means none of the beetle larvae have been killed.
# [8] = tested on: Ctenocephalides felis; assay: Ctenocephalides felis oral test; format: in vivo; conditions: 48 h, 100 ppm in cattle blood, after 2 days
# Description: Ctenocephalides felis—Oral Test Solvent: dimethyl sulfoxide
# To produce a suitable preparation of active compound, 10 mg of active compound are dissolved in 0.5 ml solvent, and the concentrate is diluted with cattle blood to the desired concentration.
# Approximately 20 adult unfed cat fleas (Ctenocephalides felis) are placed in flea chambers. The blood chamber, sealed with parafilm on the bottom, are filled with cattle blood supplied with compound solution and placed on the gauze covered top of the flea chamber, so that the fleas are able to suck the blood. The blood chamber is heated to 37° C. whereas the flea chamber is kept at room temperature.
# After 2 days mortality in % is determined. 100% means all the fleas have been killed; 0% means none of the fleas have been killed.
# [9] = tested on: Rhipicephalus sanguineus; assay: Rhipicephalus sanguineus in-vitro contact test, adult brown dog ticks; format: in vivo; conditions: 5 gg/cm^2, after 48 hours
# Description: as §1
# as §2, with “brown dog ticks (Rhipicephalus sanguineus),” for “cat fleas (Ctenocephalides felis),”, “ticks” for “fleas”, “ticks,” for “fleas,”
# An efficacy of 100% means all ticks are dead or moribund; 0% means no ticks are dead or moribund.
# [10] = tested on: Aedes aegypti strain MONHEIM; assay: Aedes aegypti test (AEDSAE surface treatment & contact assay); format: in vivo; conditions: surface concentration 20 mg/m^2, 30 minutes exposure, 24 hours after contact, read-out: efficacy (mortality)
# Description: Aedes aegyti Test (AEDSAE Surface Treatment & Contact Assay) Solvent: Aceton+2000 ppm rapeseed oil methyl ester (RME)
# (§4) In order to produce a sufficient, active ingredient containing solution it is necessary to solve the test compound in the solvent-mix (acetone at 2 mg/ml/RME 2000 ppm). This solution is pipetted onto a glazed tile and after evaporation of the acetone, adult mosquitoes of the species Aedes aegypti strain MONHEIM are placed onto the dried surface. The exposure time is 30 minutes.
# (§5) Mortality in percent (%) is determined 24 hours after contact to the treated surface. 100% mortality means that all tested insects are dead, whereas 0% means that no insect died.
# [11] = tested on: Culex quinquefasciatus strain P00; assay: whole plant or invertebrate; format: in vivo; conditions: read-out: efficacy (mortality)
# Description: Culex quinquefasciatus Test (CULXFA Surface Treatment & Contact Assay) Solvent: Aceton+2000 ppm rapeseed oil methyl ester (RME)
# as §4, with “Culex quinquefasciatus” for “Aedes aegypti”, “P00” for “MONHEIM”
# as §5
# [12] = tested on: Anopheles funestus strain FUMOZ-R; assay: whole plant or invertebrate; format: in vivo; conditions: read-out: efficacy (mortality)
# Description: Anopheles funestus Test (ANPHFU Surface Treatment & Contact Assay) Solvent: Aceton+2000 ppm rapeseed oil methyl ester (RME)
# as §4, with “Anopheles funestus” for “Aedes aegypti”, “FUMOZ-R (Hunt et al., Med. Vet. Entomol. 2005 September; 19(3): 271-275)” for “MONHEIM”
# as §5
# [13] = tested on: Nilaparvata lugens; assay: Nilaparvata lugens spray test; format: in vivo; conditions: 96 h, after 4 days
# Description: Nilaparvata lugens—Spray Test Solvent: 78.0 parts by weight of acetone • • 1.5 parts by weight of dimethylformamide Emulsifier: alkylarylpolyglycol ether
# as §3
# Rice plants (Oryza sativa) are sprayed with a preparation of the active ingredient of the desired concentration and the plants are infested with the brown planthopper (Nilaparvata lugens).
# After 4 days mortality in % is determined. 100% means all planthoppers have been killed and 0% means none of the planthoppers have been killed.
SMILES,pest or weed control at 0.02 mg [4] [%],pest or weed control at 160 µg/well [5] [%],mortality at 20 ppm [6] [%],mortality at 500 g/ha [7] [%],mortality at 100 ppm [8] [%],further results
N#Cc1ccc(-n2ncnc2CCN)nc1 [a-003],–,–,–,–,–,chromatographic logP [1]: 0.87
COC[C@H](NC(=O)c1cc(Cl)cc(Cl)c1)c1ncnn1-c1ccc(C#N)cn1 [Example I-017],–,–,–,–,–,efficacy (fleas dead or moribund) [2]: 90%; mortality at 500 g/ha [3]: 100%
COC[C@H](NC(=O)c1cc(Cl)cc(OC(F)(F)F)c1)c1ncnn1-c1ccc(C#N)cn1 [Example I-018],–,–,–,–,–,mortality at 500 g/ha [3]: 100%
O=C(c1cccc(C(F)(F)F)c1)N(Cc1ncnn1-c1ncccn1)CC1CC1 [Example I-003],100,100,100,100,–,–
O=C(NC(c1ncnn1-c1ncccn1)C1CC1)c1cc(Cl)cc(C(F)(F)F)c1 (stereo not shown) [Example I-008],95,–,–,100,100,–
O=C(NCc1ncnn1-c1ncccn1)c1cc(Cl)cc(C(F)(F)F)c1 [Example I-005],100,100,100,100,100,efficacy (fleas dead or moribund) [2]: 100%; efficacy (ticks dead or moribund) [9]: 100%; mortality at 500 g/ha [3]: 100%; mortality at 20 mg/m2 [10]: 85 to 100%; mortality at 4 mg/m2 [11]: 85 to 100%; mortality at 20 mg/m2 [11]: 85 to 100%; mortality at 4 mg/m2 [12]: 85 to 100%; mortality at 20 mg/m2 [12]: 85 to 100%
"COCC(NC(=O)c1cc(Cl)cc(C(F)(F)F)c1)c1ncnn1-c1ncccn1 (stereo not shown) [Example I-012, 3-Chloro-N-{2-methoxy-1-[1-(pyrimidin-2-yl)-1H-1,2,4-triazol-5-yl]ethyl}-5-(trifluoromethyl)-benzamide]",100,100,100,100,100,efficacy (fleas dead or moribund) [2]: 100%; efficacy (ticks dead or moribund) [9]: 80%; mortality at 500 g/ha [13]: 100%
O=C(NC1(c2ncnn2-c2ncccn2)CC1)c1cc(C(F)(F)F)cc(C(F)(F)F)c1 [Example I-014],100,–,–,–,–,–
O=C(c1cc(Cl)nc(Cl)c1)N(Cc1ncnn1-c1ncccn1)CC1CC1 [Example I-002],–,100,100,100,80,–
O=C(c1cc(Cl)cc(Cl)c1)N(Cc1ncnn1-c1ncccn1)CC1CC1 [Example I-010],–,100,100,100,–,–
O=C(NCCc1ncnn1-c1ncccn1)c1cc(Cl)cc(C(F)(F)F)c1 [Example I-006],100,100,100,100,100,mortality at 20 mg/m2 [10]: 85 to 100%
NCCc1ncnn1-c1ncccn1 [a-002],–,–,–,–,–,chromatographic logP [1]: 0.01
O=C(NC(CC1CC1)c1ncnn1-c1ncccn1)c1cc(Cl)cc(C(F)(F)F)c1 (stereo not shown) [Example I-007],–,–,100,–,–,–
COCC(NC(=O)c1cc(Cl)cc(C(F)(F)F)c1)c1ncnn1-c1ccc(C#N)cn1 (stereo not shown) [Example I-013],100,–,–,–,100,mortality at 500 g/ha [3]: 100%
"COCC(NC(=O)c1cc(Cl)cc(C(F)(F)F)c1)C(N)=O (stereo not shown) [n-001, N-(1-amino-3-methoxy-1-oxopropan-2-yl)-3-chloro-5-(trifluoromethyl)benzamide]",–,–,–,–,–,chromatographic logP [1]: 1.94
